From US12653872B2, “Mimotopes of alpha-synuclein and vaccines thereof for the treatment of synucleinopathy” (AC Immune SA, priority 2008, dated 2026) come the findings set out here.

The test system of one assay is monoclonal antibody specific for human alpha-synuclein at position 115-122 (AFFiRiS3/9, A509). Kind of assay: In vitro binding assay (ELISA): peptide-BSA on plate, incubated with the screening monoclonal antibody. Also on record: species or system mouse. The conditions noted are these: FIG. 1 and FIG. 2. The text has this: 1. In Vitro Binding Assay (ELISA)
Regarding CDMPVDPGS [p4450], the “binding to / detection by the monoclonal antibody in ELISA” value (“binding to / detection” for short) is listed as “are not detected”.

With DMPVDPGSC [p4451], the “binding to / detection” value is listed as “are not detected”.

In the case of “p4447: Human beta-syn (Full length; NCBI Acc. No. NP_001001502)”, the “binding to / detection” value is “are not detected”.

The test system is the same in a further assay. As to the kind of experiment: In vitro inhibition assay (ELISA): peptide competes with binding of the antibody to the coated original epitope. Also on record: species or system mouse. The note with it: 40 μg peptide; compared to original peptide p4448; FIG. 3. The procedure: 2. In Vitro Inhibition Assay (ELISA)
Different amounts of peptides (concentrations ranging from 40 μg to 0.3 μg (serial dilutions), as indicated in the respective figures) derived from Phage Display were incubated with the monoclonal antibody that was used for the screening procedure. Peptides diminishing subsequent binding of the antibody to the original human alpha-synuclein epitope (amino acids: 115-122 of human alpha-synuclein protein) coated on ELISA plates were considered as inhibiting in this assay.
Weak inhibition means more peptide is required to lower AB binding than with the original epitope; strong inhibition means similar peptide amounts are required for mimotope and original epitope for lowering AB binding. Mimotopes are compared to the original peptide as standard. OD at 40 μg peptide used in the assay is used to calculate the competition capacity compared to original peptide.
(An ELISA detects its analyte on a solid surface through an enzyme-linked reagent.)
Regarding CDNPVHPEN [p4492], the “competition in inhibition ELISA” value is given as “do not show competition”.

Consider CHDRPVTPDN [p4490], for which the “competition in inhibition ELISA” value is given as “show similar competition as the original peptide p4448”. On the same count and under the same terms, the same measure for CDRPVTPDN [p4491]: “show similar competition as the original peptide p4448”.

The same assay, now with this note: competition code; OD at 40 μg peptide compared to original peptide.
For CDTPVYPDN [p4494], the Inhibition is 2 (strong inhibition (as original epitope; OD of 40 μg peptide below 2 times of original peptide)). On to CDLPVTPDR [p4566], for which the Inhibition is 1 (Weaker than original epitope (OD of 40 μg peptide below 5 times of original peptide)). Still for that read-out and setting: next, CYDRPVQPDR [p4572]: 1 (Weaker than original epitope (OD of 40 μg peptide below 5 times of original peptide)); CDTPVIPDN [p4495]: 1 (Weaker than original epitope (OD of 40 μg peptide below 5 times of original peptide)). On the same count and under the same terms, next, DQPVLPDC [p4640]: 2 (strong inhibition (as original epitope; OD of 40 μg peptide below 2 times of original peptide)); CDSPVVPDN [p4564]: 1 (Weaker than original epitope (OD of 40 μg peptide below 5 times of original peptide)); CDSPVLPDN [p4464]: 2 (strong inhibition (as original epitope; OD of 40 μg peptide below 2 times of original peptide)). Still for that read-out and setting: the same measure for CDVPVLPDN [p4493]: 2 (strong inhibition (as original epitope; OD of 40 μg peptide below 2 times of original peptide)); for CDRPVYPDI [p4558]: 2 (strong inhibition (as original epitope; OD of 40 μg peptide below 2 times of original peptide)). Turning to CDMPVSPDR [p4555], the Inhibition is 1 (Weaker than original epitope (OD of 40 μg peptide below 5 times of original peptide)). Same read-out and setting: the same measure for CDRPVQPDR [p4571]: 1 (Weaker than original epitope (OD of 40 μg peptide below 5 times of original peptide)); for CDAPVYPDG [p4570]: 1 (Weaker than original epitope (OD of 40 μg peptide below 5 times of original peptide)).

On to CEMPVDPDN [P4648], for which the Inhibition is reported as 1 (Weaker than original epitope (OD of 40 μg peptide below 5 times of original peptide)). With CDHPVTPDR [p4559], the Inhibition was 1 (Weaker than original epitope (OD of 40 μg peptide below 5 times of original peptide)). Same read-out and setting: the same measure for CHDRPVTPDN [p4490]: 2 (strong inhibition (as original epitope; OD of 40 μg peptide below 2 times of original peptide)); for CDMPVLPDG [p4497]: 1 (Weaker than original epitope (OD of 40 μg peptide below 5 times of original peptide)).

Take CDHPVHPDS [p4554]: the Inhibition was 1 (Weaker than original epitope (OD of 40 μg peptide below 5 times of original peptide)). Same read-out and setting: next, CDQPVLPDG [p4496]: 1 (Weaker than original epitope (OD of 40 μg peptide below 5 times of original peptide)).

Take CDRPVTPDN [p4491]: the Inhibition was found to be 7. Same read-out and setting: next, DMPVLPDC [p4641]: 2 (strong inhibition (as original epitope; OD of 40 μg peptide below 2 times of original peptide)); CDMPVWPDG [p4569]: 1 (Weaker than original epitope (OD of 40 μg peptide below 5 times of original peptide)); CDAPVTPDT [p4563]: 1 (Weaker than original epitope (OD of 40 μg peptide below 5 times of original peptide)). Same read-out and setting: next, CDSPVHPDT [p4567]: 1 (Weaker than original epitope (OD of 40 μg peptide below 5 times of original peptide)). Same read-out and setting: the same measure for CDTPVLPDS [p4561]: 2 (strong inhibition (as original epitope; OD of 40 μg peptide below 2 times of original peptide)); for CDQPVLPDN [p4462]: 2 (strong inhibition (as original epitope; OD of 40 μg peptide below 2 times of original peptide)).
